{"source": "patent US12514859B2", "about": "“Pyrazole pyrimidine derivative and uses thereof” (Yissum Research Development Company of the Hebrew …, priority 2015, dated 2026)", "key": {"CML blast crisis mice": {"test_system": "CML blast crisis mice", "test": "CML blast crisis mouse model (BCR-ABL)", "format": "in vivo", "conditions": "oral 10 mg/kg once a day, day 9", "procedure": "Generation of a mouse model of CML blast crisis and inhibitor studies in this model. To generate the BCR-ABL-inducible chronic myeloid leukemia (CML) model, bone marrow (BM) cells from 10 weeks wild type mouse were extracted and enriched for cKit expressing cells (EasySep #18757) and incubated overnight at 37° C. in RPMI growth medium supplemented with 15% FCS, L-Glutamine, Pen/Strep (Biological Industries, Israel) and stem cell factor (SCF), IL-3, IL-6 and TPO (Peprotcch). The culture was then infected with p210BCR-ABL-IRES-GFP retrovirus construct containing supernatant medium for 4 hours, then growth medium was added and infected cells were incubated at 37° C. for additional 24 h. […] Upon observing a fast steady increase of GFP-expressing cells in the peripheral blood of inoculated mice (by FACS) and rising numbers of leukocyte and immature cells (detected by Wright-Giemsa stained blood films), mice were sacrificed and their BM cells were transferred to new sublethally irradiated WT hosts; each such transfer was termed disease generation. […] Blast crisis development was readily detectable by a highly abnormal number of blast cells, more than 30% of white blood cells (WBC) in the peripheral blood (PB), and short time intervals between transfers. […] Mice were monitored daily for cachexia, weight loss, lethargy, and ruff coats, and moribund mice were sacrificed upon moribund. […]"}, "[1]": {"test_system": "p53, DNA damage response (γH2AX)", "test": "p53 and DNA damage response activation in RKO cells (Western blot, primary screen and dose response)", "format": "cell-based", "conditions": "16 hours, Western blot, average value", "procedure": "Primary Screen in RKO cells for compounds having typical CKIα inhibitory activity (β-catenin and p53 stabilization and histone H2AX phosphorylation; see Elyada et al, Nature 2011 Feb. 17; 470(7334):409-13; Pribluda et al, Cancer Cell 2013 Aug. 12; 24(2):242-56). RKO colorectal cells were incubated with 10 μM of each of the compounds for 16 hours at 37° C. Cells were washed with PBS and cell pellets were incubated with ice cold protein lysis buffer containing protease inhibitor cocktail (1/200; Calbiochem) and phosphatase inhibitors (20 mM p-nitrophenyl phosphate (PNPP), 20 mM β-glycerophosphate and 300 nM okadaic acid). Western blot analysis was performed by means of standard techniques. Blots were incubated with antibodies detecting β-catenin (1/2,500; BD Transduction), p53 (DO-1&1801 hybridoma mix; dilution of 1:20 of supernatants from each), CKIα (C-19; 1/1,000; Santa Cruz Biotechnology) and phospho-histoneH2AX (S139; 1/1,000; Millipore). Secondary antibodies were HRP-linked goat anti-mouse, goat anti-rabbit and rabbit anti-goat antibodies (all 1/10,000; Jackson). Blots were developed using ECL (GE Healthcare).\nActive compounds were further analyzed in a dose-response experiment (FIGS. 1A and 1B). Similar to the primary screen, RKO cells were incubated with descending concentrations of each of the active compounds for 16 hours at 37° C. Cell extract isolation and Western Blot analysis were similar to the primary screen.\nTable 1 provides quantified information for compounds of the invention in activation of p53 and DNA damage response (DDR) and β-catenin stabilization as an indicator of Wnt pathway activation. p53 activation was determined according to the degree of protein stabilization in several Western blot assays (Western blot examples are shown in FIGS. 1A and 1B). […] In contrast, A35 started stabilizing p53 at […], with maximal stabilization at […] (FIG. 1A, upper right panel) and thus received an average value of +++ for p53 activation."}, "IRAK1": {"target": "T1, IRAK1 (Homo sapiens, UniProt P51617)", "T1 construct": "RKO cells were incubated for 16 hours at 37° C. with the indicated concentrations of compounds; endogenous in cells; host or cells: RKO cells, stimulated with TNFα", "T1 sequence (P51617 whole entry)": "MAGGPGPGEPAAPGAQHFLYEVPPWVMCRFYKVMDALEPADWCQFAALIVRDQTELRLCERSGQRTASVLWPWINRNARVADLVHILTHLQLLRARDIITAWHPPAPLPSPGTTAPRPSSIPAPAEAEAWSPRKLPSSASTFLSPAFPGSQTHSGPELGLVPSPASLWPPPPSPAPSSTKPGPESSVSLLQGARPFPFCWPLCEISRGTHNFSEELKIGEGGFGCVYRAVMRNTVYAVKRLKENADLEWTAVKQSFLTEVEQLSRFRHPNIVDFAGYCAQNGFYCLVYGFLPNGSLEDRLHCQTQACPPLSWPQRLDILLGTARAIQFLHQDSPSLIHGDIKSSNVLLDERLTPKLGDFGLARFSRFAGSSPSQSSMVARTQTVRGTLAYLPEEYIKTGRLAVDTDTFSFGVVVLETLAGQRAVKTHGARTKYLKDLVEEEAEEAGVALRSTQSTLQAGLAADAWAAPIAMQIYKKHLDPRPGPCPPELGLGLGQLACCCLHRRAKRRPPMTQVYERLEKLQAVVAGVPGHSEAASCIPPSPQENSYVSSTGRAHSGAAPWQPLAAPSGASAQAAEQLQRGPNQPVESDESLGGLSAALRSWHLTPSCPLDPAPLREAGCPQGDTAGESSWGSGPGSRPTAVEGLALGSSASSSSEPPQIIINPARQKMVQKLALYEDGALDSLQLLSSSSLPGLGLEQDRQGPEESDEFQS", "test": "Kd measurements for the interaction with IRAK1", "format": "binding"}}}
{"smiles": "Cn1ncc(-c2ccnc(N[C@H]3CC[C@H](N)CC3)n2)c1CC1CC1", "note": "[Compound A14, (1R, 4R)—N^1-(4-(5-(cyclopropylmethyl)-1-methyl-1H-pyrazol-4-yl)pyrimidin-2-yl)cyclohexane-1,4-diamine]", "values": [{"measurement": "leukemia cell burden in the peripheral blood and bone marrow (in words)", "setting": "CML blast crisis mice", "result": "significantly reduces the leukemia cell burden"}, {"measurement": "DDR & p53 activity", "setting": "[1]", "result": "+++ (+++ indicates maximal β-catenin or p53 stabilization at >2 μM)"}, {"measurement": "Kd", "setting": "IRAK1", "result": 11, "unit": "nM"}]}
